Reference: patent publication US9790221B2, “Heteroaryl compounds as IRAK inhibitors and uses thereof” (Merck Patent GmbH, priority 2014, dated 2017)

How the values were obtained:
[1] = target: IRAK4 (Homo sapiens (Human), UniProt Q9NWZ3); assay: IRAK4 enzymatic assay; type: biochemical
Description: IRAK4 is a human purified recombinant enzyme ([…]. IRAK4 hydrolyses ATP, autophosphorylates and phosphorylates a Serine/Threonine generic peptidic substrate (STK: 61ST1BLC from CisBio International based in Bagnols/Cèze FR).
Measurement of IRAK-4 inhibition was performed in streptavidin coated 384well FlashPlate (PerkinElmer #SMP410A). His-TEV-IRAK4 (20 ng/well), ATP (2 μM, [^33P]ATP 0.25 µCi/well), STK1-biotin peptide (300 nM) and compounds in DMSO (range of concentrations from 20 µM to 1 nM) or controls (2% DMSO) were incubated for 3 hours at 30° C. in assay buffer: Hepes pH7.0 50 mM, Fatty acid-free BSA 0.1%, Dithiothreitol DTT 2 mM, MgCl2 10 mM, EGTA 0.5 mM, Tween-20 0.01%, MnCl2 5 mM.
Kinase reaction was stopped by addition of EDTA. Supernatant was discarded, plates were washed three times with 150 mM NaCl and radioactivity was then measured in a Microbeta Trilux reader.

[2] = target: IRAK1 (His-TEV-IRAK1 (194-712)) (Homo sapiens (Human), UniProt P51617); assay: IRAK1 enzymatic assay; type: biochemical
Description: IRAK1 is a human purified recombinant enzyme (His-TEV-IRAK1 (194-712)). In this assay, IRAK-1 hydrolyses ATP and autophosphorylates. Measurement of IRAK-1 inhibition was performed in streptavidin coated 384well FlashPlate (PerkinElmer #SMP410A).
His-TEV-IRAK-1 (15 ng/well), ATP (1 μM, [33P]ATP 0.25 μCi/well) and compounds in DMSO (range of concentrations from 20 µM to 1 nM) or controls (2% DMSO) were incubated for 3 hours at 30° C. in assay buffer: Hepes pH7.0 50 mM, Fatty acid-free BSA 0.1%, Dithiothreitol DTT 2 mM, MgCl2 10 mM, EGTA 0.5 mM, Triton-X-100 0.01%. Kinase reaction was stopped by addition of EDTA. Supernatant was discarded, plates were washed three times with 150 mM NaCl and radioactivity was then measured in a Microbeta Trilux reader.

[3] = system: TLR7 induced IL-6 secretion in human mononuclear cells (PBMC's); assay: TLR7 induced IL-6 in human PBMC's; type: cell-based; conditions: Homo sapiens, PBMC, read-out: TLR7 induced IL-6 secretion in hPBMC's (IC50)
Description: TLR7 Induced IL-6 in Human PBMC's
Human PBMC assay was used as one of the functional assay a to monitor the activity of IRAK1 and IRAK4 small molecule inhibitors on TLR7 induced IL-6 secretion in human mononuclear cells (PBMC's). Human PBMCs were prepared from buffy coats (whole blood enriched with leukocytes and platelets) obtained from healthy volunteers used either fresh or frozen are plated in assay media (RPMI+2% P/S/L-glu+10% HI-FBS) and pre-treated with compounds in DMSO/media (range of concentrations from 25 uM to 0.4 nM) or controls (0.25% DMSO) for 30 minutes at 37° C. in assay media. Following pre-treatment with IRAK1 and IRAK4 inhibitors, PBMC's were stimulated with TLR7 specific ligand (2 uM) overnight (16-18 hrs) at 37° C. After incubation supernatant was transferred to 384 well PE AlphaPlate-384 (6005350) and IL-6 is quantified using Perkin Elmer IL-6 Alpha LISA kit (AL223C). Plates were read on an Envision® plate reader with Alpha Technology®.

Sequence of IRAK1 (His-TEV-IRAK1 (194-712)) (P51617 194-712): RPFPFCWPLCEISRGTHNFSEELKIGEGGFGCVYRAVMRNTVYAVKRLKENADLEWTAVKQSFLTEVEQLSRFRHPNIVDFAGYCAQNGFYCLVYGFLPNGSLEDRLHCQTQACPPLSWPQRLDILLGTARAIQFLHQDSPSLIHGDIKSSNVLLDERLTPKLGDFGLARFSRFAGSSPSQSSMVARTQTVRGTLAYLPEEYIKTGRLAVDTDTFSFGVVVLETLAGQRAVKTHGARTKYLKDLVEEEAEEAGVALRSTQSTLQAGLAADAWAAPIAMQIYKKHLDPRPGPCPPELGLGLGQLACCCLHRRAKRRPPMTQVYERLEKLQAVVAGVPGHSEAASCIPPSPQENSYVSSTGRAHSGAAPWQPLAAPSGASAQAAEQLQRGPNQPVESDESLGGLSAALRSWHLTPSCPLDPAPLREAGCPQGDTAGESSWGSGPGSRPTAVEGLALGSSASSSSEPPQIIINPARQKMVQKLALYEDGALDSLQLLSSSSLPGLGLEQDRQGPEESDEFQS
Sequence of IRAK4 (Q9NWZ3 whole entry): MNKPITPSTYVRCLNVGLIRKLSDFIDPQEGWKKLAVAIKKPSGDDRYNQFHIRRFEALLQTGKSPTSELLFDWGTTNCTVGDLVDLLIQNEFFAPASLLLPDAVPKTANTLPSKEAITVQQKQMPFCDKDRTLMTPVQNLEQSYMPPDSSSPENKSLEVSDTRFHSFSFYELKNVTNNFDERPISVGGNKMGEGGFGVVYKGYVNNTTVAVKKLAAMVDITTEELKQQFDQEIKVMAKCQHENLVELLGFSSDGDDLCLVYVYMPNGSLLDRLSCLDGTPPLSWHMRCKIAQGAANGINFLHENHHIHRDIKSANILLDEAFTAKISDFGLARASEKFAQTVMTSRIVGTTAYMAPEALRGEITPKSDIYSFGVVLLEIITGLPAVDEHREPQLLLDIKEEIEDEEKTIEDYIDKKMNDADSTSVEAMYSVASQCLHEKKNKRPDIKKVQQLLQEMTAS

| SMILES | IC50 [1] [µM] | IC50 [2] [µM] | IC50 [3] [µM] |
| --- | --- | --- | --- |
| Cn1cc(-c2cccc(-c3ncc(-c4cnn(C)c4)c(N[C@H]4CCC[C@@H]4O)n3)c2)cn1 (racemic) [Example 94] | < 0.1 | 0.1 to 1 | 1 to 5 |
| Cn1cc(-c2cccc(-c3ncc(-c4ccn(C)n4)c(O[C@@H]4CCC[C@@H](N)[C@@H]4O)n3)c2)cn1 [Example 132] |  | 0.1 to 1 | 0.1 to 1 |
| Cc1nnc(-c2cnc(-c3cccc(-c4cnn(C)c4)c3)nc2NC2CCN(S(C)(=O)=O)CC2)s1 [Example 151] |  | 0.1 to 1 | 0.1 to 1 |
| Cn1cc(-c2cccc(-c3ncc(-c4cnn(C)c4)c(N[C@H]4CCN(S(C)(=O)=O)C4)n3)c2)cn1 [Example 170] |  | 0.1 to 1 | 1 to 5 |
| Cn1cc(-c2cccc(-c3ncc(-c4cnn(C)c4)c(N4CC5CNCC5C4)n3)c2)cn1 (centres unmarked) [Example 191] | 0.1 to 1 | > 5 |  |
| Cc1nnc(-c2cnc(-c3cccc(-c4cnn(C)c4)c3)nc2NCC2CN(S(C)(=O)=O)C2)s1 [Example 192] | < 0.1 | 1 to 5 |  |
| Cn1cc(-c2cccc(-c3ncc(-c4cnn(C)c4)c(NC4CC5CCC4N5)n3)c2)cn1 (centres unmarked) [Example 193] | 0.1 to 1 | > 5 |  |
| Cn1cc(-c2cccc(-c3ncc(-c4cnn(C)c4)c(N[C@H]4C[C@H](N)C4)n3)c2)cn1 [Example 197] | 0.1 to 1 | > 5 |  |
| CC(=O)NCC1CCC(Nc2nc(-c3cccc(-c4cnn(C)c4)c3)ncc2-c2cnn(C)c2)CC1 (centres unmarked) [Example 198] | < 0.1 | 1 to 5 |  |
| Cn1cc(-c2cccc(-c3ncc(-c4cnn(C)c4)c(NCC4CCCC4N)n3)c2)cn1 (centres unmarked) [Example 200] | 0.1 to 1 | 1 to 5 |  |
| Cn1cc(-c2cccc(-c3ncc(-c4cnn(C)c4)c(NC4CCC(CNS(C)(=O)=O)CC4)n3)c2)cn1 (centres unmarked) [Example 201] | < 0.1 | 1 to 5 |  |
| CC(=O)N[C@H]1C[C@H](Nc2nc(-c3cccc(-c4cnn(C)c4)c3)ncc2-c2cnn(C)c2)C1 [Example 202] | 0.1 to 1 | 1 to 5 |  |
| Cn1cc(-c2cccc(-c3ncc(-c4cnn(C)c4)c(NCC4CCCC4NS(C)(=O)=O)n3)c2)cn1 (centres unmarked) [Example 203] | 0.1 to 1 | 1 to 5 |  |
| CC(=O)NC1CCC(Nc2nc(-c3cccc(-c4cnn(C)c4)c3)ncc2-c2nnc(C)s2)CC1 (centres unmarked) [Example 205] | < 0.1 | 0.1 to 1 |  |
| CC(=O)NC[C@H]1C[C@H](Nc2nc(-c3cccc(-c4cnn(C)c4)c3)ncc2-c2cnn(C)c2)C1 [Example 212, N-(3-{5-(1-Methyl-1H-pyrazol-4-yl)-2-[3-(1-methyl-1H-pyrazol-4-yl)-phenyl]-pyrimidin-4-ylamino}-cyclobutylmethyl)-acetamide] | 0.1 to 1 | > 5 |  |
| Cn1cc(-c2cccc(-c3ncc(-c4cnn(C)c4)c(N4CCC(O)C4)n3)c2)cn1 (centres unmarked) [Example 218] | 0.1 to 1 | 1 to 5 |  |
| Cn1cc(-c2cccc(-c3ncc(-c4cnn(C)c4)c(N4CCCC(CO)C4)n3)c2)cn1 (centres unmarked) [Example 220] | < 0.1 | 0.1 to 1 |  |
| CN(CCC#N)c1nc(-c2cccc(-c3cnn(C)c3)c2)ncc1-c1cnn(C)c1 [Example 222] | 0.1 to 1 | 0.1 to 1 |  |
| Cn1cc(-c2cccc(-c3ncc(-c4cnn(C)c4)c(NC(C)(C)C)n3)c2)cn1 [Example 223] | < 0.1 | 0.1 to 1 |  |
| Cn1cc(-c2cccc(-c3ncc(-c4cnn(C)c4)c(NC[C@@H]4CCCC[C@H]4O)n3)c2)cn1 [Example 224] | < 0.1 | 1 to 5 |  |
| Cn1cc(-c2cccc(-c3ncc(-c4cnn(C)c4)c(N4CC(O)C4)n3)c2)cn1 [Example 226] | 0.1 to 1 | > 5 |  |
| Cn1cc(-c2cccc(-c3ncc(-c4cnn(C)c4)c(NCCC4(O)CCCC4)n3)c2)cn1 [Example 227] | < 0.1 | 0.1 to 1 |  |
| Cn1cc(-c2cccc(-c3ncc(-c4cnn(C)c4)c(N4CCC(CCO)C4)n3)c2)cn1 (centres unmarked) [Example 228] | 1 to 5 | > 5 |  |
